This passage reports inhibition results from ChEMBL document CHEMBL5442219.

What all share (conditions): Compound concentration 10 µM
Test [1] concerns the target T1, Alpha-1A adrenergic receptor (Homo sapiens) (UniProt P35348).
T1 sequence (whole entry): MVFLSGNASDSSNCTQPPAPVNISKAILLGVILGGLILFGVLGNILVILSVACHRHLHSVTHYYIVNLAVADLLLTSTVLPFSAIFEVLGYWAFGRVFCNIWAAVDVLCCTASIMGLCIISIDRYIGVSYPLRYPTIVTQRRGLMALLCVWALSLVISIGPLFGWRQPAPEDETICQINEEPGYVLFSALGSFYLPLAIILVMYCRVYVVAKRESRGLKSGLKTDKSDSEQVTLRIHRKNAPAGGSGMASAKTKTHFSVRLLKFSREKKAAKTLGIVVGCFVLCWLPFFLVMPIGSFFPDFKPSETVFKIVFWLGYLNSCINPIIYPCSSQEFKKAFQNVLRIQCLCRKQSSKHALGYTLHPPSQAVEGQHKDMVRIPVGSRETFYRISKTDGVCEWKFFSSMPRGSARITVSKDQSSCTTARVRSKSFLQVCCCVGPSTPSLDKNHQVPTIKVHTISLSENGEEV
Description: PDSP Primary Binding target: ADRA1A - Compounds are tested at 10 uM concentration, plate are incubated at room temperature in the dark for 90 minutes. Reaction are stopped by vacuum filtration onto 0.3% polyethyleneimine soaked filter mats using Filtermate harvester. Scintilation cocktail is then melted onto microwave-dried filters on a hot plate and the radio activity is counted in Microbia counter.

The target of test [2] is T2, Alpha-1B adrenergic receptor (Homo sapiens) (UniProt P35368).
T2 sequence (whole entry): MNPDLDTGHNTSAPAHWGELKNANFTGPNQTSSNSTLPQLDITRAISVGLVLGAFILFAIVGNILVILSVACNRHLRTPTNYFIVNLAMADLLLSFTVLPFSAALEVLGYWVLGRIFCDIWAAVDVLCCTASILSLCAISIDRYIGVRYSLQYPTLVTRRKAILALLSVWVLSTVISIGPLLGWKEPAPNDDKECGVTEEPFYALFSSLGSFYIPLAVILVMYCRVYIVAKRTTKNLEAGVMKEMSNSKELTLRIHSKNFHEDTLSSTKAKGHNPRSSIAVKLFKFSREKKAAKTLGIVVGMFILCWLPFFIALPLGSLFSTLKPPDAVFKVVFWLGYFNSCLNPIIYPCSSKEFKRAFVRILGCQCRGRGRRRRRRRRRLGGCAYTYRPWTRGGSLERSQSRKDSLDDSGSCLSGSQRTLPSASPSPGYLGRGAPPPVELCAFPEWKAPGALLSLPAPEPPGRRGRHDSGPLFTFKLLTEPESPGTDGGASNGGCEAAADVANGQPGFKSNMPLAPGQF
Description: PDSP Primary Binding target: ADRA1B - Compounds are tested at 10 uM concentration, plate are incubated at room temperature in the dark for 90 minutes. Reaction are stopped by vacuum filtration onto 0.3% polyethyleneimine soaked filter mats using Filtermate harvester. Scintilation cocktail is then melted onto microwave-dried filters on a hot plate and the radio activity is counted in Microbia counter.

The target in test [3] is T3, Alpha-1D adrenergic receptor (Homo sapiens) (UniProt P25100).
T3 sequence (whole entry): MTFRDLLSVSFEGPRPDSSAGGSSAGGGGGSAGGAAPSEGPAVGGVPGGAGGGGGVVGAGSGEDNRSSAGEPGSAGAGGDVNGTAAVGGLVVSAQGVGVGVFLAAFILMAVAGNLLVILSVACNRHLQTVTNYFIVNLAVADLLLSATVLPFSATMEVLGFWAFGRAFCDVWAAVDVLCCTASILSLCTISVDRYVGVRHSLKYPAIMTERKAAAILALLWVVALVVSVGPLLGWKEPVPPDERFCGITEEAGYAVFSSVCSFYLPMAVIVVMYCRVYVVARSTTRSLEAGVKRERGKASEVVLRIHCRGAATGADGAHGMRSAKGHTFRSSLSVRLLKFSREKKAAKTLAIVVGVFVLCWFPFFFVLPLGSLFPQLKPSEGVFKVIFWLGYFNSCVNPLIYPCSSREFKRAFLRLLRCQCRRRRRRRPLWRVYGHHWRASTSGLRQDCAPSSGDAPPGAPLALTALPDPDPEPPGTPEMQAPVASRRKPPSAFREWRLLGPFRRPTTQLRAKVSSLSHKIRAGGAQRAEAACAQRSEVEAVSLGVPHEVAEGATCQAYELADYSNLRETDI
Description: PDSP Primary Binding target: ADRA1D - Compounds are tested at 10 uM concentration, plate are incubated at room temperature in the dark for 90 minutes. Reaction are stopped by vacuum filtration onto 0.3% polyethyleneimine soaked filter mats using Filtermate harvester. Scintilation cocktail is then melted onto microwave-dried filters on a hot plate and the radio activity is counted in Microbia counter.

Test [4] has as its target T4, Muscarinic acetylcholine receptor M2 (Homo sapiens) (UniProt P08172).
T4 sequence (whole entry): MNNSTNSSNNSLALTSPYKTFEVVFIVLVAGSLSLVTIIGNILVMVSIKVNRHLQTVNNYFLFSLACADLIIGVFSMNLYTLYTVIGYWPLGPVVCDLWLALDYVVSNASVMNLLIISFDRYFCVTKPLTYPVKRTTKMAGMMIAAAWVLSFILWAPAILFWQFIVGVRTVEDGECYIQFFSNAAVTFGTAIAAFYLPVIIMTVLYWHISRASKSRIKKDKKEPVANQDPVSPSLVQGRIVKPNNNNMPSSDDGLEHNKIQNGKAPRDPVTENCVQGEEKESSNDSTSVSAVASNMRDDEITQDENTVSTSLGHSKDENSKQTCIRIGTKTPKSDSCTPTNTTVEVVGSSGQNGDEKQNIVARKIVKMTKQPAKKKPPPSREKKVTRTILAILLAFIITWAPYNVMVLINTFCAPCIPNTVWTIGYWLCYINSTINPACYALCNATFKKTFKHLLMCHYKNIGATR
Description: PDSP Primary Binding target: CHRM2 - Compounds are tested at 10 uM concentration, plate are incubated at room temperature in the dark for 90 minutes. Reaction are stopped by vacuum filtration onto 0.3% polyethyleneimine soaked filter mats using Filtermate harvester. Scintilation cocktail is then melted onto microwave-dried filters on a hot plate and the radio activity is counted in Microbia counter.

The target of test [5] is T5, Muscarinic acetylcholine receptor M4 (Homo sapiens) (UniProt P08173).
T5 sequence (whole entry): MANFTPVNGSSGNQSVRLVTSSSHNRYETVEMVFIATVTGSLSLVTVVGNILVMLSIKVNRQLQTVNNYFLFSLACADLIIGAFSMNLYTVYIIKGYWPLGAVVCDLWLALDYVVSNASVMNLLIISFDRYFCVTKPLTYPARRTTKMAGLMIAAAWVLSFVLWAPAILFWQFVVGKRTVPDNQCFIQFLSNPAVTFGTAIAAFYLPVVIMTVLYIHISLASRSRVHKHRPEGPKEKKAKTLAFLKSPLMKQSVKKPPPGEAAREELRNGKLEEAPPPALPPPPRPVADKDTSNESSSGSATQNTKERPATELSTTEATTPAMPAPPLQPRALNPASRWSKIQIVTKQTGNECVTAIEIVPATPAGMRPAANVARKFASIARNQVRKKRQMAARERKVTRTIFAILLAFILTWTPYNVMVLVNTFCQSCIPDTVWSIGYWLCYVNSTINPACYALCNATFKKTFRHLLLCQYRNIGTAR
Description: PDSP Primary Binding target: CHRM4 - Compounds are tested at 10 uM concentration, plate are incubated at room temperature in the dark for 90 minutes. Reaction are stopped by vacuum filtration onto 0.3% polyethyleneimine soaked filter mats using Filtermate harvester. Scintilation cocktail is then melted onto microwave-dried filters on a hot plate and the radio activity is counted in Microbia counter.

The target of test [6] is Histamine H1 receptor (Homo sapiens) (UniProt P35367).
Description: PDSP Primary Binding target: HRH1 - Compounds are tested at 10 uM concentration, plate are incubated at room temperature in the dark for 90 minutes. Reaction are stopped by vacuum filtration onto 0.3% polyethyleneimine soaked filter mats using Filtermate harvester. Scintilation cocktail is then melted onto microwave-dried filters on a hot plate and the radio activity is counted in Microbia counter.
Test [7] addresses Delta-type opioid receptor (Homo sapiens) (UniProt P41143).
Description: PDSP Primary Binding target: OPRD1 - Compounds are tested at 10 uM concentration, plate are incubated at room temperature in the dark for 90 minutes. Reaction are stopped by vacuum filtration onto 0.3% polyethyleneimine soaked filter mats using Filtermate harvester. Scintilation cocktail is then melted onto microwave-dried filters on a hot plate and the radio activity is counted in Microbia counter.
For test [8], the target named is 5-hydroxytryptamine receptor 5A (Homo sapiens) (UniProt P47898).
Description: PDSP Primary Binding target: HTR5A - Compounds are tested at 10 uM concentration, plate are incubated at room temperature in the dark for 90 minutes. Reaction are stopped by vacuum filtration onto 0.3% polyethyleneimine soaked filter mats using Filtermate harvester. Scintilation cocktail is then melted onto microwave-dried filters on a hot plate and the radio activity is counted in Microbia counter.

What is called inhibition is the change of the read-out against control, counted positive when it falls.

Sequence of 5-hydroxytryptamine receptor 5A (Homo sapiens) (P47898 whole entry): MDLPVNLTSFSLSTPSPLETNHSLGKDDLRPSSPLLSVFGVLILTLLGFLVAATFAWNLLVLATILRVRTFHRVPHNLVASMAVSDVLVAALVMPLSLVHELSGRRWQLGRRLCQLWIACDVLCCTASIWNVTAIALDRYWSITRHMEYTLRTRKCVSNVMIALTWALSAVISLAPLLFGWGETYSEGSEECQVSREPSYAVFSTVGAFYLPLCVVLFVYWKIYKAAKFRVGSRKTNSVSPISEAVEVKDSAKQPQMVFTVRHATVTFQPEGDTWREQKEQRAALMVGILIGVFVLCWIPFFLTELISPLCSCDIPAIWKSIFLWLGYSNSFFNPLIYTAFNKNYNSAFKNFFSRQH
Sequence of Histamine H1 receptor (Homo sapiens) (P35367 whole entry): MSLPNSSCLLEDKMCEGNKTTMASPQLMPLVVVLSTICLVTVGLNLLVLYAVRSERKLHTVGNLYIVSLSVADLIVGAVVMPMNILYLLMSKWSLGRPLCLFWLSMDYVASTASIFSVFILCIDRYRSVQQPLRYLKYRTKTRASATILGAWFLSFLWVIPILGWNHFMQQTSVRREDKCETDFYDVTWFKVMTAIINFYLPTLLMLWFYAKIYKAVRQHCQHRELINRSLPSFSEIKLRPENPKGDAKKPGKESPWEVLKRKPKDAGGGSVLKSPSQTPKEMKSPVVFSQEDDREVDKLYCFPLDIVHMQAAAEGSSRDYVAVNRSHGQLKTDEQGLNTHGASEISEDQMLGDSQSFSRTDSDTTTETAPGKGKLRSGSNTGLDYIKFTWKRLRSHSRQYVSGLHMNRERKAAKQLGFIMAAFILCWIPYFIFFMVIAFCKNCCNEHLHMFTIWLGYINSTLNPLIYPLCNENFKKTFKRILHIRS
Sequence of Delta-type opioid receptor (Homo sapiens) (P41143 whole entry): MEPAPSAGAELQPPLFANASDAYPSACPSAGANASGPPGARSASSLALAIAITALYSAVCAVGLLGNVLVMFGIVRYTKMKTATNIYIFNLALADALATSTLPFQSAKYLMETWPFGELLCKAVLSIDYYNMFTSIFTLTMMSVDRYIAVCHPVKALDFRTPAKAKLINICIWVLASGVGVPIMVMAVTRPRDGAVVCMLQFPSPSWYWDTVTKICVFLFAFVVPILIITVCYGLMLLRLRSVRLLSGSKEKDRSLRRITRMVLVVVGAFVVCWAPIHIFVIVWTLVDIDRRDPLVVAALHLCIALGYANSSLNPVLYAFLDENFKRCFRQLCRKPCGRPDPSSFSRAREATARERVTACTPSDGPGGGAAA

Take `CCN(CC)CCCCC1CCN(CC(=O)N2c3ccccc3C(=O)Nc3cccnc32)CC1`: the inhibition was -8.07% in test [1]; -0.95% in test [2]; -4.13% in test [3]; 81.4% in test [4]; 95.5% in test [5]; -7.08% in test [6]. Moreover, the inhibition in test [7] was 24.6%.

On to `Cc1cc(NC(=O)Nc2ccc(N(C)C)cc2)c2cc(F)cc(F)c2n1`, for which the inhibition is 3.42% in test [1]; 14% in test [2]; 6.71% in test [3]; 52.8% in test [4]; 2.31% in test [5]; 6.41% in test [6].

Take `COc1ccc(Br)cc1S(=O)(=O)NC(=O)/C=C/c1ccccc1Cc1ccc2ccccc2c1`: the inhibition in test [1] is 17.8%; in test [2], -0.54%; in test [3], 16.2%; in test [4], 40.7%; in test [5], -8.83%; in test [6], 9.07%. In addition, the inhibition in test [7] was -2.75%.

Regarding `O=C(O)CC/C=C\C[C@@H]1CO[C@H](c2ccccc2Cl)O[C@@H]1c1ccccc1O`, the inhibition in test [1] is -9.2%; in test [2] it was -9.67%; in test [4], -3.76%; in test [6], 33.4%; in test [7], 46%.

Take `CCCCCNC(=O)NS(=O)(=O)c1cc([N+](=O)[O-])ccc1NC1CCCCC1`: the inhibition is -4% in test [1]; 13.4% in test [2]; 6.55% in test [3]; -9.24% in test [4]; 4.78% in test [5]; 12.8% in test [6]. For the same compound, the inhibition in test [7] was 8.56%.

Consider `CN1C(=O)[C@@H](NC(=O)c2cc3ccccc3[nH]2)N=C(c2ccccc2)c2ccccc21`, for which the inhibition in test [1] is 2.69%; in test [2] it was -6.37%; in test [3], -0.46%; in test [5], -8%; in test [6], -6.55%; in test [8], -2.34%. In test [7], the inhibition is 13%.

Consider `CC(C)(N)C(=O)N[C@H](COCc1ccccc1)C(=O)N1CCC2(CC1)CN(S(C)(=O)=O)c1ccccc12`, for which the inhibition in test [1] was 3.39%; in test [2], 11.4%; in test [3] it was 9.82%; in test [4], 1.1%; in test [6], 24.6%; in test [7], 3.11%.

For the compound `O=c1ccn([C@@H]2O[C@H](COP(=O)(O)OP(=O)(O)O)[C@@H](O)[C@H]2O)c(=O)[nH]1`, the inhibition in test [1] was -6.92%; in test [2], -6.51%; in test [4], 15.9%; in test [5], 9.94%; in test [6] it was 34.8%; in test [7] it was 14.1%.

`Cc1csc2c(N[C@@H](C)CN3CCN(S(=O)(=O)c4ccc(Cl)c(Cl)c4)CC3)ncnc12`: the inhibition in test [1] was -5.96%; in test [2] it was 7.3%; in test [3] it was -3.91%; in test [4], 1.88%; in test [6], 20.4%; in test [7], 4.01%.

`CNC[C@H](O)c1cccc(O)c1`: the inhibition in test [1] was 27.4%; in test [2], 10.8%; in test [3] it was 26.6%; in test [5], 6.21%; in test [6], -2.34%; in test [8] it was 26.3%. For the same compound, the inhibition in test [7] is 13.8%.

On to `O=C(Nc1ccc(Cl)cc1)Nc1cccc(-c2cccc(N3CCCC3)n2)c1`, for which the inhibition is 1.27% in test [1]; 0.2% in test [3]; 12.7% in test [4]; 18.8% in test [5]; -4.85% in test [6].

In the case of `OC1(c2ccc(Cl)cc2)CCN(Cc2c[nH]c3ccccc23)CC1`, the inhibition in test [1] is 66.1%; in test [2] it was 37.1%; in test [3], 21.4%; in test [5] it was -10%; in test [6] it was 38.8%; in test [8], 37.7%. Further, the inhibition in test [7] was 3.7%.

Regarding `CCc1cc(C(C)=O)c(O)cc1OCCCCCC(C)(C)c1nn[nH]n1`, the inhibition in test [1] was 8.06%; in test [2], -3.95%; in test [3] it was 19.5%; in test [5], -4.28%; in test [6] it was 17.1%; in test [8], 8.4%.

Regarding `O=C(Cc1ccc(Cl)c(Cl)c1)N1CCCC[C@H]1CN1CCCC1`, the inhibition in test [1] was 31.2%; in test [2] it was 11.4%; in test [3], 12.3%; in test [4], 12%; in test [5], 16.7%; in test [6], 23.8%. Further, in test [7], the inhibition was 17.6%.

For `CN1CC(=O)N=C1NC(=O)Nc1cccc(Cl)c1`, the inhibition is 7.79% in test [1]; -6.38% in test [2]; -0.49% in test [3]; -2.92% in test [5]; -1.11% in test [6]; 18.4% in test [8]. Moreover, the inhibition in test [7] is -3.44%.

Turning to `CN(C)C(=O)C(CCN1CCC(O)(c2ccc(Cl)cc2)CC1)(c1ccccc1)c1ccccc1`, the inhibition is 42.9% in test [1]; 52.4% in test [2]; 38% in test [3]; -6.62% in test [5]; 23.2% in test [8]; 91.5% in test [7].

As for `Cc1c(OCc2cccc(-c3ccc(C(=O)O)cc3)c2)cc2c(c1C)C(=O)C(C1CCCC1)C2` (stereo not drawn), the inhibition in test [1] was 48.4%; in test [2], 63.1%; in test [3] it was 60%; in test [4], 32.3%; in test [6] it was -3.97%; in test [7], -8.42%.

As for `CC(C)NCC(O)COc1cccc2ccccc12` (stereo not drawn), the inhibition in test [1] is 14.6%; in test [3] it was 12.7%; in test [5], -3.37%; in test [8] it was -2.95%; in test [7], 7.31%.
